Test results from US8048872B2, “Treatment of hyperproliferative diseases with vinca alkaloid N-oxide and analogs” (Stat of Oregon Acting by and Through The Oregon State Board …, priority 2006, dated 2011).
Values joined by “and” are separate entries in the source; they are usually repeats but may differ in a detail not shown here. Identical values can stand only once. Like-named read-outs stand apart in the source and are kept apart here.

What was measured:
[1] = in vivo; details: female, nude, mouse, iv
Protocol: In one example, female nude mice (n=10) were inoculated subcutaneously with 15×10^6 human K562 myelogenous leukemia cells in a 1:1 ratio with matrigel on the right flank. Tumor volumes were monitored and calculated using the formula: Tumor volume=(a^2×b/2) where ‘a’ is the smallest diameter and ‘b’ is the largest diameter. Once the established tumors reached approximately 75-150 mm^3 (individual tumor volumes may range from […]) the mice were assigned to the various vehicle control and treatment groups such that the mean tumor volumes in the treated groups were within 10% of the mean tumor weight in the vehicle control group. On the same day (day 1) and days 4, 7, 10, and 13, vinca-alkaloid N-oxide analogs (VCR-NO, VBL-NO) were administered intravenously according to a q3d×5 schedule. Mice were also treated with vehicle (negative control) and the standard agents, vinblastine and vincristine (positive controls). Tumor volumes were recorded three times a week starting when tumors were palpable and including the day of study termination. Animals were monitored for signs of toxicity and body weights were recorded twice a week starting on the first day of treatment and including the day of study termination. […] The mean day of sacrifice were calculated to determine the tumor growth delay and tumor growth inhibition effects of each test article as compared to vehicle control. […] Statistical significance between the treated vs. control groups was evaluated by logrank analysis.

[2] = system: murine L1210 leukemic tumor cells; assay: in vivo; details: L1210; 5 mg/kg i.v. q3d×5
Protocol: (§1) For example, B6D2F1 mice (n=8/group) were inoculated subcutaneously (sc) in the right flank with 1×10^6 murine L1210 leukemic tumor cells. […] Test agents were administered on multiple treatment regimen (q3d×5) to yield optimal dose schedule benefit. Vehicle control treated mice served as the negative control group; mice treated with the bioreduced parent compounds, vincristine and vinblastine, dosed at their […] (MTDs), served as the positive control groups. Tumors were measured with calipers twice weekly and tumor volume calculated using the formula: Tumor Volume (mm^3)=((width)^2×length)/2. Animals were monitored for signs of toxicity and weighed daily for the first 5 days of the study and then twice-weekly until the study end. As pre-defined in the protocol, each animal was actively euthanized when its tumor reached the pre-determined endpoint size of 2000 mm^3 or at the conclusion of the study (day 37) whichever came first. The time to endpoint (TTE) was calculated for each mouse as TTE (days)=(log10(endpoint volume mm^3)−b)/m where b is the intercept and m is the slope of the line obtained by linear regression of a log-transformed tumor growth data set. Treatment outcome was determined from tumor growth delay (TGD) which is defined as the increase in median TTE in a treatment (T) group as compared to the control (C) group (TGD=T−C) expressed in days or as a percentage of the median TTE of the control group % TGD=((T−C)/C)×100. […] Statistical significance between the treated vs. control groups was evaluated by logrank analysis.

[3] = in vivo; details: B6D2F1, mouse, in vivo, iv
Protocol: as §1

[4] = system: human H460 lung adenocarcinoma; assay: cells; details: NCI-H460, 14 h
Protocol: (§2) Tumor cell line were cultured in DMEM-10% FBS under standard conditions. One-hundred mm plastic culture dishes were seeded with 1×10^6 tumor cells and treated with vinca alkaloids or N-oxide analogs at a dose range of 0.01-100 nM. Cells were exposed with gentle rocking to a constant level of low oxygen (0.2% O2-5% CO2-balance N2) in a hypoxia apparatus (INVIVO2400 Hypoxia Workstation, Ruskin Technology) for 14 hr at 37° C. Identically treated cells were incubated under normoxia (air-5% CO2) at 37° C. Cells were harvested and replated in fresh medium at a density of 1×10^3 cells/well in 48-well plastic culture plates to assess viability 24-72 hr later. Briefly, Alamar Blue was added to replicate wells on Day 0 and Day 3, and cells were incubated for a further 3-6 hr at 37° C. before fluorescence readings using a plate reader (530-560 nm excitation, 590 emission). The percent inhibition of proliferation was calculated and plotted against control-treated cells at each drug concentration. […] The Hypoxia Cytotoxicity Ratio (HCR) was determined as the ratio of the IC50 of the compound under normoxic conditions vs. hypoxic conditions.

[5] = system: murine P388 leukemic tumor cells; assay: in vivo; details: P388; 5 mg/kg i.v. q3d×5
Protocol: as §1
This model was developed by subcutaneously inoculating B6D2F1 mice (n=8/group) with 1×10^6 murine P388 leukemic tumor cells using similar methodology to that described above for L1210. […] Agents were administered on multiple treatment regimen (q3d×5) to yield optimal dose schedule benefit. Efficacy of treatment with the N-oxide analogs was determined by Tumor Growth Delay (TGD) and Kaplan-Meier survival analysis as described for L1210, the exception being that the conclusion of the study was day 45 or the predefined endpoint size of 2000 mm^3 whichever came first. Vehicle control treated mice served as the negative control group; mice treated with the standard agents, vincristine and vinblastine, dosed at their MTDs, served as the positive control groups.

[6] = system: human H460 lung adenocarcinoma
Protocol: as §2

[7] = cited from earlier work; for patients developing pneumonia: refractory chronic lymphocytic leukemia
[8] = Formation of clear solution in aqueous vehicles; assay type: physicochemical; details: de-ionized water and 5% dextrose/water solutions
[9] = acute promyelocytic leukemia patients
[10] = non-Hodgkin's lymphoma, 9 mcg/kg/d IV days 1-5, every 21 days
[11] = non-Hodgkin's lymphoma, 9 or 18 mcg/kg/d IV days 1-5, every 21 days, Grade III-IV
[12] = non-Hodgkin's lymphoma, 18 mcg/kg/d IV days 1-5, every 21 days

CC[C@]1(O)C[C@@H]2CN(CCc3c([nH]c4ccccc34)[C@@](C(=O)OC)(c3cc4c(cc3OC)N(C)[C@H]3[C@@](O)(C(=O)OC)[C@H](OC(C)=O)[C@]5(CC)C=CCN6CC[C@]43[C@@H]65)C2)C1 [Vinblastine, vinblastine]
MTD [1]: 2.5 mg/kg
Median Survival [2]: 24.3 days
Tumor Growth Delay [2]: 34%
MTD [3]: 5 mg/kg
median day of death (4 mg/kg ip q3d×5): 10.8 days
median day of death (6 mg/kg ip q3d×5): 9.8 days
IC50 ([4]; read-out: IC50 Air): 20 nM
IC50 ([4]; read-out: IC50 Hypoxia): 17 nM
Median Survival [5]: 30.8 days
Tumor Growth Delay [5]: 149%
Hypoxia Cytotoxicity Ratio (HCR) [6]: 1

CCC1=C[C@@H]2CN(C1)Cc1c([nH]c3ccccc13)[C@@](C(=O)OC)(c1cc3c(cc1OC)N(C)[C@H]1[C@@](O)(C(=O)OC)[C@H](OC(C)=O)[C@]4(CC)C=CCN5CC[C@]31[C@@H]54)C2 [Vinorelbine]
Anemia Grade III-IV ([7]; human, in vivo, iv): Anemia Grade III-IV 5%
Constipation ([7]; human, in vivo, iv): Constipation 3%
Diarrhea ([7]; human, in vivo, iv): 4%
Neurologic ([7]; human, in vivo, iv): Neurologic 9%
Neuropathy ([7]; human, in vivo, iv): Neuropathy 1%
Neutropenic Infection ([7]; human, in vivo, iv): <1%
Neutropenic Sepsis ([7]; human, in vivo, iv): Neutropenic Sepsis 3%
Stomatitis ([7]; human, in vivo, iv): Stomatitis <1%
Thrombocytopenia ([7]; human, in vivo, iv): Thrombocytopenia 1%

CC1=C(/C=C/C(C)=C/C=C/C(C)=C/C(=O)O)C(C)(C)CCC1 [all-trans-retinoic acid, reference compound]
lethal pulmonary toxicity [7, 9]: 2%
life-threatening pulmonary toxicity [7, 9]: 11%
patients developing grade III or IV pulmonary toxicity (total) [7, 9]: Twenty
severe pulmonary toxicity [7, 9]: 7%

Nc1nc(F)nc2c1ncn2[C@@H]1O[C@H](COP(=O)(O)O)[C@@H](O)[C@@H]1O [fludarabine phosphate, reference compound]
patients developing pneumonia ([7]; 15-25 mg/m^2 daily for five days every 28 days): 22%
patients developing pneumonia ([7]; 22-40 mg/m^2 daily for five days every 28 days): 16%

Nc1ccn([C@@H]2O[C@H](CO)[C@@H](O)C2(F)F)c(=O)n1 [gemcitabine, reference compound]
Constipation ([7]; human, in vivo, iv): Constipation 3%
Deep Vein Thrombosis ([7]; human, in vivo, iv): 3%
Diarrhea ([7]; human, in vivo, iv): Diarrhea 2%
Edema ([7]; human, in vivo, iv): Edema 5%
Fever ([7]; human, in vivo, iv): Fever 3%
Increased Bilirubin ([7]; human, in vivo, iv): Increased Bilirubin 41%
Neutropenic Fever ([7]; human, in vivo, iv): Neutropenic Fever 3%
Pain ([7]; human, in vivo, iv): Pain 2%
Respiratory ([7]; human, in vivo, iv): Respiratory 5%
State of Consciousness ([7]; human, in vivo, iv): Consciousness 2%
patients with grade III-IV respiratory toxicity ([7]; human, in vivo, iv): 2 out of 40
Anemia Grade III ([7]; human, in vivo): Anemia Grade III 14.3%
Hepatotoxicity ([7]; human, in vivo): (Grade III) 14.3%
Infection ([7]; human, in vivo): (Grade III) 3.6%
Leukopenia ([7]; human, in vivo): 10.7%
Leukopenia/Neutropenia Toxicity ([7]; human, in vivo): Grade III 19%
Skin Rash ([7]; human, in vivo): (Grade III) 3.6%

Alemtuzumab
Anemia Grade III-IV ([7]; Grade III-IV): 38%
Bronchitis/Pneumonitis ([7]; Grade III-IV): 13%
Dyspnea ([7]; Grade III-IV): Dyspnea 9%
Fatigue ([7]; Grade III-IV): Fatigue 5%
Fever ([7]; Grade III-IV): Fever 19%
Hypotension ([7]; Grade III-IV): Hypotension 5%
Neutropenia ([7]; Grade III-IV): 64%
Pneumonia ([7]; Grade III-IV): Pneumonia 10%
Rigors ([7]; Grade III-IV): Rigors 16%
Sepsis ([7]; Grade III-IV): Sepsis 10%
Thrombocytopenia ([7]; Grade III-IV): Thrombocytopenia 50%
Urticaria ([7]; Grade III-IV): Urticaria 5%

Arsenic trioxide
Anemia Grade III-IV ([7]; Grade III-IV): Anemia Grade III-IV 5%
Arthralgia/Myalgia ([7]; Grade III-IV): Arthralgia/Mylagia 13%
Convulsions ([7]; Grade III-IV): Convulsions 5%
Disseminated Intravascular Coagulation ([7]; Grade III-IV): 8%
Dyspnea ([7]; Grade III-IV): Dyspnea 10%
Febrile Neutropenia ([7]; Grade III-IV): Febrile Neutropenia 8%
Fever ([7]; Grade III-IV): Fever 5%
Hyperglycemia ([7]; Grade III-IV): Hyperglycemia 13%
Hypokalemia ([7]; Grade III-IV): Hypokalemia 13%
Hypomagnesemia ([7]; Grade III-IV): Hypomagnesemia 13%
Hypoxia ([7]; Grade III-IV): Hypoxia 10%
Leukocytosis ([7]; Grade III-IV): Leukocytosis 3%
Neutropenia ([7]; Grade III-IV): 10%
Paresthesias ([7]; Grade III-IV): Paresthesias 5%
Sepsis ([7]; Grade III-IV): Sepsis 5%
Thrombocytopenia ([7]; Grade III-IV): Thrombocytopenia 12%

Denileukin diftitox
Leukopenia [7, 10]: Leukopenia 6%
Neutropenia [7, 10]: Neutropenia 3%
Constitutional Symptoms [7, 11]: Symptoms 37-47%
Gastrointestinal [7, 11]: Gastrointestinal 20-36%
Infection [7, 11]: Infection 33-43%
Infusion-Related Events: Back Pain [7, 11]: Back Pain 6-11%
Infusion-Related Events: Chest Pain/Tightness [7, 11]: Tightness 9%
Infusion-Related Events: Dyspnea [7, 11]: Dyspnea 6-11%
Infusion-Related Events: Hypotension [7, 11]: Hypotension 8-11%
Infusion-Related Events: Pruritis [7, 11]: Pruritis 6%
Infusion-Related Events: Vasodilation [7, 11]: Vasodilation 3%
Rash [7, 11]: Rash 19-23%
Right Heart Failure [7, 11]: Right Heart Failure 3-6%
Thrombotic Events [7, 11]: Thrombotic Events 3-8%
Vascular Leak Syndrome [7, 11]: Syndrome 17-25%
Leukopenia [7, 12]: Leukopenia 3%
Neutropenia [7, 12]: Neutropenia 3%

Gemcitabine + Cisplatin
Anemia Grade III-IV ([7]; Grade III-IV): 25% and 27%
Cardiac Dysrhythmia ([7]; Grade III-IV): 2.8%
Dyspnea ([7]; Grade III-IV): Dyspnea 7%
Elevated Creatinine ([7]; Grade III-IV): Elevated Creatinine 4.8%
Nausea ([7]; Grade III-IV): Nausea 27%
Neurohearing ([7]; Grade III-IV): Neurohearing 6%
Neutropenic Sepsis ([7]; Grade III-IV): Neutropenic Sepsis 1%
Pulmonary ([7]; Grade III-IV): Pulmonary 3%
Vomiting ([7]; Grade III-IV): Vomiting 23%
Alopecia ([7]; Grade III): 10.5%
Diarrhea ([7]; Grade III): Diarrhea (Grade III) 3%
Granulocytopenia ([7]; Grade III): Grade III 21.7%
Hematuria ([7]; Grade III): 4.5%
Nausea/Vomiting ([7]; Grade III): (Grade III) 22%
Neuromotor ([7]; Grade III): 11.5%
Neutropenia ([7]; Grade III): 41.2%
Granulocytopenia ([7]; Grade IV): Grade IV 35.3%
Neutropenia ([7]; Grade IV): 29.9%

Liposomal doxorubicin
Anemia Grade III-IV ([7]; human, in vivo, iv): 9.8%
Leukopenia ([7]; human, in vivo, iv): Leukopenia 36%
Mucositis ([7]; human, in vivo, iv): Mucositis 5%
Nausea/Vomiting ([7]; human, in vivo, iv): Nausea/Vomiting 15%
Neutropenia Grade IV ([7]; human, in vivo, iv): Grade IV 6%
Neutropenic Fever ([7]; human, in vivo, iv): Neutropenic Fever 11%
Palmar-Plantar Erythrodysesthesia ([7]; human, in vivo, iv): Erythrodysesthesia 29%
Peripheral Neuropathy ([7]; human, in vivo, iv): 6%
Stomatitis ([7]; human, in vivo, iv): Stomatitis 14%
Thrombocytopenia ([7]; human, in vivo, iv): Thrombocytopenia 3%

Vinblastine N-Oxide Dihydrochloride
forms a stable clear solution at [8]: about 20 mg/mL

gemtuzumab: Mylotarg, Wyeth-Ayerst [reference compound]
Anemia Grade III-IV ([7]; Grade III-IV): 47%
Chills ([7]; Grade III-IV): Chills 13%
Dyspnea ([7]; Grade III-IV): Dyspnea 9%
Fever ([7]; Grade III-IV): Fever 15%
Hyperbilirubinemia ([7]; Grade III-IV): Hyperbilirubinemia 23%
Hyperglycemia ([7]; Grade III-IV): Hyperglycemia 12%
Leukopenia ([7]; Grade III-IV): 96%
Nausea ([7]; Grade III-IV): Nausea 9%
Neutropenia ([7]; Grade III-IV): 98%
Neutropenic Fever ([7]; Grade III-IV): Neutropenic Fever 7%
Pneumonia ([7]; Grade III-IV): Pneumonia 7%
Sepsis ([7]; Grade III-IV): Sepsis 16%
Thrombocytopenia ([7]; Grade III-IV): Thrombocytopenia 99%
patients with grade III or IV pneumonia ([7]; acute myelogenous patients, 9 mg/m^2 IV, two doses 14 days apart): 7%
